Laboratory results taken from patent publication US6809065B2, “Herbicide containing substituted pyrazole derivative as active ingredient” (SDS Biotech K.K., priority 2001, dated 2004).

Legend:
[1] = tested on: Chenopodium album; assay: Upland field foliage treatment (Test Example 1); assay type: in vivo; conditions: foliage treatment 14th day after sowing, wettable powder, 1 kg active ingredient per hectare, evaluated 21st day after application
Method in brief: (§1)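 Weeds and crops were sown in upland soil under about 1 cm cover, and a wettable powder diluted in water was sprayed on the foliage 14 days after sowing at 1 kg active ingredient per hectare. Scoring was done 21 days after application on an index scale, where higher weed scores mean stronger herbicidal effect and lower crop scores mean greater crop safety.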

[2] = tested on: Digitaria adscendens; assay: Upland field foliage treatment (Test Example 1); assay type: in vivo; conditions: foliage treatment 14th day after sowing, wettable powder, 1 kg active ingredient per hectare, evaluated 21st day after application
Method in brief: as §1

[3] = tested on: Setaria viridis; assay: Upland field foliage treatment (Test Example 1); assay type: in vivo; conditions: foliage treatment 14th day after sowing, wettable powder, 1 kg active ingredient per hectare, evaluated 21st day after application
Method in brief: as §1

[4] = tested on: Stellaria media; assay: Upland field foliage treatment (Test Example 1); assay type: in vivo; conditions: foliage treatment 14th day after sowing, wettable powder, 1 kg active ingredient per hectare, evaluated 21st day after application
Method in brief: as §1

[5] = tested on: soybean (Glycine max); assay: Upland field foliage treatment (Test Example 1), crop; assay type: in vivo; conditions: foliage treatment 14th day after sowing, 1 kg active ingredient per hectare, evaluated 21st day, lower index = higher safety
Method in brief: as §1

[6] = tested on: wheat (Triticum aestivum); assay: as above; assay type: in vivo; conditions: foliage treatment 14th day after sowing, 1 kg active ingredient per hectare, evaluated 21st day, lower index = higher safety
Method in brief: as §1

[7] = tested on: Chenopodium album; assay: Upland soil treatment (Test Example 2); assay type: in vivo; conditions: soil surface treatment next day after sowing, wettable powder, 1 kg active ingredient per hectare, evaluated 21st day after application
Method in brief: (§2)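 Pre-emergence soil treatment: day after sowing, WP formulation diluted in water, applied uniformly to soil surface at 1 kg a.i./ha. Seeds sown ~1 cm deep in upland soil. Visual index read 21 d after application (weeds: high = effective; crop: low = safe).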

[8] = tested on: Digitaria adscendens; assay: Upland soil treatment (Test Example 2); assay type: in vivo; conditions: soil surface treatment next day after sowing, wettable powder, 1 kg active ingredient per hectare, evaluated 21st day after application
Method in brief: as §2

[9] = tested on: Setaria viridis; assay: Upland soil treatment (Test Example 2); assay type: in vivo; conditions: soil surface treatment next day after sowing, wettable powder, 1 kg active ingredient per hectare, evaluated 21st day after application
Method in brief: as §2

[10] = tested on: Stellaria media; assay: Upland soil treatment (Test Example 2); assay type: in vivo; conditions: soil surface treatment next day after sowing, wettable powder, 1 kg active ingredient per hectare, evaluated 21st day after application
Method in brief: as §2

[11] = tested on: soybean (Glycine max); assay: Upland soil treatment (Test Example 2), crop; assay type: in vivo; conditions: soil surface treatment next day after sowing, 1 kg active ingredient per hectare, evaluated 21st day, lower index = higher safety
Method in brief: as §2

[12] = tested on: wheat (Triticum aestivum); assay: Upland soil treatment (Test Example 2), crop; assay type: in vivo; conditions: soil surface treatment next day after sowing, 1 kg active ingredient per hectare, evaluated 21st day, lower index = higher safety
Method in brief: as §2

[13] = tested on: Echinochloa spp.; assay: Paddy field treatment (Test Example 3); assay type: in vivo, Echinochloa crusgalli; conditions: paddy pot, submerged 4 cm, dropped on water surface 10th day after transplantation, 1 kg active ingredient per hectare, evaluated 21st day
Method in brief: (§3)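 Weeds sown in puddled paddy soil under 4 cm water, with two-leaf Koshihikari rice transplanted at 3 cm depth. On day 10 after transplanting, wettable powder applied to the water surface at 1 kg active ingredient per hectare. Herbicidal effect and crop safety scored on an index 21 days later.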

[14] = tested on: Ammannia multiflora; assay: Paddy field treatment (Test Example 3); assay type: in vivo; conditions: paddy pot, submerged 4 cm, dropped on water surface 10th day after transplantation, 1 kg active ingredient per hectare, evaluated 21st day
Method in brief: as §3

[15] = tested on: Monochoria vaginalis; assay: Paddy field treatment (Test Example 3); assay type: in vivo; conditions: paddy pot, submerged 4 cm, dropped on water surface 10th day after transplantation, 1 kg active ingredient per hectare, evaluated 21st day
Method in brief: as §3

[16] = tested on: Scirpus juncoides; assay: Paddy field treatment (Test Example 3); assay type: in vivo; conditions: paddy pot, submerged 4 cm, dropped on water surface 10th day after transplantation, 1 kg active ingredient per hectare, evaluated 21st day
Method in brief: as §3

[17] = tested on: rice (Oryza sative, variety: Koshihikari); assay: Paddy field treatment (Test Example 3), crop; assay type: in vivo, Oryza sativa; conditions: transplanted rice two-leaf period, water surface treatment 10th day after transplantation, 1 kg active ingredient per hectare, evaluated 21st day, lower index = higher safety
Method in brief: as §3

Compound	Herbicidal activity Chenopodium album [1]	Herbicidal activity Digitaria adscendens [2]	Herbicidal activity Setaria viridis [3]	Herbicidal activity Stellaria media [4]	Herbicidal activity Glycine max [5]	Herbicidal activity Triticum aestivum [6]	Herbicidal activity Chenopodium album [7]	Herbicidal activity Digitaria adscendens [8]	Herbicidal activity Setaria viridis [9]	Herbicidal activity Stellaria media [10]	Herbicidal activity Glycine max [11]	Herbicidal activity Triticum aestivum [12]	Herbicidal activity Echinochloa spp. [13]	Herbicidal activity Ammannia multiflora [14]	Herbicidal activity Monochoria vaginalis [15]	Herbicidal activity Scirpus juncoides [16]	Herbicidal activity Oryza sativa [17]
COC=C(Cn1nc(-c2ccc(Cl)cc2)c(C)c1C)C(=O)OC [Compound 35]	4 (herbicidal effect of not less than 70% by weight and less than 90% by weight)	4 (herbicidal effect of not less than 70% by weight and less than 90% by weight)	4 (herbicidal effect of not less than 70% by weight and less than 90% by weight)	4 (herbicidal effect of not less than 70% by weight and less than 90% by weight)	0 (herbicidal effect of not less than 0% by weight and less than 10% by weight)	0 (herbicidal effect of not less than 0% by weight and less than 10% by weight)	4 (herbicidal effect of not less than 70% by weight and less than 90% by weight)	4 (herbicidal effect of not less than 70% by weight and less than 90% by weight)	4 (herbicidal effect of not less than 70% by weight and less than 90% by weight)	4 (herbicidal effect of not less than 70% by weight and less than 90% by weight)	0 (herbicidal effect of not less than 0% by weight and less than 10% by weight)	0 (herbicidal effect of not less than 0% by weight and less than 10% by weight)	3 (herbicidal effect of not less than 50% by weight and less than 70% by weight)	4 (herbicidal effect of not less than 70% by weight and less than 90% by weight)	4 (herbicidal effect of not less than 70% by weight and less than 90% by weight)	3 (herbicidal effect of not less than 50% by weight and less than 70% by weight)	0 (herbicidal effect of not less than 0% by weight and less than 10% by weight)
COC=C(Cn1nc(-c2cc(Cl)cc(Cl)c2)c(Br)c1C)C(=O)OC [Compound 32]	4 (herbicidal effect of not less than 70% by weight and less than 90% by weight)	4 (herbicidal effect of not less than 70% by weight and less than 90% by weight)	4 (herbicidal effect of not less than 70% by weight and less than 90% by weight)	4 (herbicidal effect of not less than 70% by weight and less than 90% by weight)	0 (herbicidal effect of not less than 0% by weight and less than 10% by weight)	0 (herbicidal effect of not less than 0% by weight and less than 10% by weight)	4 (herbicidal effect of not less than 70% by weight and less than 90% by weight)	4 (herbicidal effect of not less than 70% by weight and less than 90% by weight)	4 (herbicidal effect of not less than 70% by weight and less than 90% by weight)	4 (herbicidal effect of not less than 70% by weight and less than 90% by weight)	0 (herbicidal effect of not less than 0% by weight and less than 10% by weight)	0 (herbicidal effect of not less than 0% by weight and less than 10% by weight)	3 (herbicidal effect of not less than 50% by weight and less than 70% by weight)	3 (herbicidal effect of not less than 50% by weight and less than 70% by weight)	3 (herbicidal effect of not less than 50% by weight and less than 70% by weight)	3 (herbicidal effect of not less than 50% by weight and less than 70% by weight)	0 (herbicidal effect of not less than 0% by weight and less than 10% by weight)
CCc1cc(-c2ccccc2)nn1CC(=COC)C(=O)OC [Compound 36]	5 (herbicidal effect of not less than 90% by weight)	4 (herbicidal effect of not less than 70% by weight and less than 90% by weight)	5 (herbicidal effect of not less than 90% by weight)	5 (herbicidal effect of not less than 90% by weight)	1 (herbicidal effect of not less than 10% by weight and less than 30% by weight)	1 (herbicidal effect of not less than 10% by weight and less than 30% by weight)	4 (herbicidal effect of not less than 70% by weight and less than 90% by weight)	4 (herbicidal effect of not less than 70% by weight and less than 90% by weight)	4 (herbicidal effect of not less than 70% by weight and less than 90% by weight)	4 (herbicidal effect of not less than 70% by weight and less than 90% by weight)	0 (herbicidal effect of not less than 0% by weight and less than 10% by weight)	0 (herbicidal effect of not less than 0% by weight and less than 10% by weight)	3 (herbicidal effect of not less than 50% by weight and less than 70% by weight)	3 (herbicidal effect of not less than 50% by weight and less than 70% by weight)	3 (herbicidal effect of not less than 50% by weight and less than 70% by weight)	3 (herbicidal effect of not less than 50% by weight and less than 70% by weight)	0 (herbicidal effect of not less than 0% by weight and less than 10% by weight)
COC=C(Cn1nc(-c2cc(C)ccc2C)c(Br)c1C)C(=O)OC [Compound 28]	5 (herbicidal effect of not less than 90% by weight)	4 (herbicidal effect of not less than 70% by weight and less than 90% by weight)	4 (herbicidal effect of not less than 70% by weight and less than 90% by weight)	5 (herbicidal effect of not less than 90% by weight)	0 (herbicidal effect of not less than 0% by weight and less than 10% by weight)	0 (herbicidal effect of not less than 0% by weight and less than 10% by weight)	4 (herbicidal effect of not less than 70% by weight and less than 90% by weight)	4 (herbicidal effect of not less than 70% by weight and less than 90% by weight)	4 (herbicidal effect of not less than 70% by weight and less than 90% by weight)	4 (herbicidal effect of not less than 70% by weight and less than 90% by weight)	0 (herbicidal effect of not less than 0% by weight and less than 10% by weight)	0 (herbicidal effect of not less than 0% by weight and less than 10% by weight)	5 (herbicidal effect of not less than 90% by weight)	5 (herbicidal effect of not less than 90% by weight)	5 (herbicidal effect of not less than 90% by weight)	5 (herbicidal effect of not less than 90% by weight)	1 (herbicidal effect of not less than 10% by weight and less than 30% by weight)
